Data set [1] concerns Plasmodium falciparum. The data set can be described thus: Antimalarial activity against asynchronic culture of Plasmodium falciparum NF54 assessed as parasite growth inhibition at 20 ug/mL after 48 hrs by ethidium bromide staining-based spectrofluorometric analysis relative to control. It counts as functional. Conditions: NF54, 48 h, read-out: GI.
For a further data set, the system named is Trypanosoma cruzi. Briefly: Antitrypanosomal activity against amastigote stage of Trypanosoma cruzi Tulahuen infected in human U937 cells assessed as parasite growth inhibition at 20 ug/mL after 72 hrs by beta-galactosidase reporter gene assay relative to control. The format is functional. The settings on record: U-937, 72 h, read-out: GI. For orientation: In a reporter assay the amount or activity of a reporter protein is the signal.

In data set [2] the test system is Leishmania panamensis. The data set can be described thus: Antileishmanial activity against amastigote stage of Leishmania panamensis MHOM/CO/87/UA140-EpiR-GFP infected in human U937 cells assessed as parasite growth inhibition at 20 ug/mL after 72 hrs by flow cytometric analysis relative to control. It counts as functional. The settings on record: MHOM/CO/87/UA140, U-937, 72 h, read-out: GI.

Data set [3] in a line: Cytotoxicity against human U937 cells assessed as cell viability after 72 hrs by MTT assay. The format is cell-based, U-937. The settings on record: read-out: LC50. For orientation: Formazan colour is commonly taken as a measure of viable cells.
Data set [4] relates to Leishmania panamensis. The data set can be described thus: Antileishmanial activity against amastigote stage of Leishmania panamensis MHOM/CO/87/UA140-EpiR-GFP infected in human U937 cells assessed as parasite growth inhibition after 72 hrs by flow cytometric analysis. The format is functional, organism-based. Conditions: MHOM/CO/87/UA140, U-937, 72 h.
Data set [5] in a line: Hemolytic activity in human RBC after 48 hrs by spectrophotometric analysis. It counts as ADME, cell-based, Erythrocyte. The settings on record: human red blood cells (RBC), read-out: LC50.
Data set [6] has as its system Plasmodium falciparum. Briefly: Antimalarial activity against asynchronic culture of Plasmodium falciparum NF54 assessed as parasite growth inhibition after 48 hrs by ethidium bromide staining-based spectrofluorometric analysis. It counts as functional, organism-based. Conditions: NF54, 48 h.

In general, EC50 refers to the midpoint of the concentration-response curve. The IC50 is the concentration that gives 50% inhibition.

≈ marks a conversion by molar mass, not a printed value. Bounds are passed on as bounds.

For the molecule `COc1cc(/C=C/C(=O)c2ccccc2)ccc1Oc1nc2c(c(=O)n(C)c(=O)n2C)n1C`, the results for the inhibition of growth at 20 µg/mL in the data set with Plasmodium falciparum [1], in the data set on Trypanosoma cruzi and in the data set on Leishmania panamensis [2] were 27.5%, 0% and 40.4%, respectively. Besides, the CC50 at 72 h in data set [3] was determined as 131 mg/L (≈ 293 µM).
In the case of `COc1cc(/C=C/C(=O)c2ccc(Cl)cc2)ccc1Oc1nc2c(c(=O)n(C)c(=O)n2C)n1C`, the inhibition of growth at 20 µg/mL in the data set on Plasmodium falciparum [1] came out at 18.4%; in the data set with Trypanosoma cruzi it was 29.5%; with Leishmania panamensis [2], 88.3%. The half-maximal effective concentration (EC50) in the data set with Leishmania panamensis [4] is 12.9 mg/L (≈ 26.8 µM). In addition, the CC50 at 72 h in data set [3] worked out at 102 mg/L (≈ 212 µM).
For the molecule `COc1cc(/C=C/C(=O)c2ccc(Br)cc2)ccc1Oc1nc2c(c(=O)n(C)c(=O)n2C)n1C`, the values for the inhibition of growth at 20 µg/mL in the data set with Plasmodium falciparum [1], in the data set with Trypanosoma cruzi and in the data set with Leishmania panamensis [2] were 34.3%, 0% and 50.8%, respectively. In data set [3], the CC50 at 72 h amounted to 96.5 mg/L (≈ 184 µM).
Take `COc1ccc(C(=O)/C=C/c2ccc(Oc3nc4c(c(=O)n(C)c(=O)n4C)n3C)c(OC)c2)cc1`: the inhibition of growth at 20 µg/mL in the data set on Plasmodium falciparum [1] came out at 0%; with Trypanosoma cruzi, 27.5%; in the data set with Leishmania panamensis [2], 82.6%. In the data set on Leishmania panamensis [4], the EC50 was found to be 14.2 mg/L (≈ 29.8 µM). For the same molecule, the CC50 at 72 h in data set [3] was more than 200 mg/L.
As to `COc1cc(C2CC(c3ccc(Cl)cc3)=NN2)ccc1Oc1nc2c(c(=O)n(C)c(=O)n2C)n1C` (configuration not stated), the results for the inhibition of growth at 20 µg/mL in the data set on Plasmodium falciparum [1], in the data set with Trypanosoma cruzi and in the data set with Leishmania panamensis [2] were 23.9%, 36.4% and 7.7%, respectively. For the same molecule, in data set [3], the CC50 at 72 h turned out to be 34.6 mg/L (≈ 69.9 µM).
The like results for `COc1ccc(C2=NNC(c3ccc(Oc4nc5c(c(=O)n(C)c(=O)n5C)n4C)c(OC)c3)C2)cc1` (configuration not stated) were, in that order, 13.1%, 25.9%, 0% and more than 200 mg/L.
`COc1cc(C2CC(c3cc(OC)c(OC)c(OC)c3)=NN2)ccc1Oc1nc2c(c(=O)n(C)c(=O)n2C)n1C` (configuration not stated): the results for the inhibition of growth at 20 µg/mL in the data set with Plasmodium falciparum [1], in the data set on Trypanosoma cruzi and with Leishmania panamensis [2] were 30.7%, 0% and 73%, respectively. For the same molecule, the EC50 in the data set on Leishmania panamensis [4] worked out at 15.8 mg/L (≈ 28.7 µM). The CC50 at 72 h in data set [3] is more than 200 mg/L.
Take `COc1cc(C2CC(c3ccc(Cl)cc3)=NN2C(C)=O)ccc1Oc1nc2c(c(=O)n(C)c(=O)n2C)n1C` (configuration not stated): the inhibition of growth at 20 µg/mL in the data set on Plasmodium falciparum [1] is 22.1%; with Trypanosoma cruzi it was 9.8%; in the data set with Leishmania panamensis [2], 39.1%. In addition, the CC50 at 72 h in data set [3] was more than 200 mg/L.
Consider `COc1cc(C2CC(c3ccc(Br)cc3)=NN2C(C)=O)ccc1Oc1nc2c(c(=O)n(C)c(=O)n2C)n1C` (configuration not stated), for which the inhibition of growth at 20 µg/mL in the data set on Plasmodium falciparum [1] amounted to 44.1%; in the data set with Trypanosoma cruzi, 24.3%; in the data set on Leishmania panamensis [2], 82.8%. The EC50 in the data set on Leishmania panamensis [4] came to 14.3 mg/L (≈ 24.6 µM). In data set [3], the CC50 at 72 h was determined as 110 mg/L (≈ 189 µM).
The like results for `COc1cc(C2CC(c3ccc(C)cc3)=NN2C(C)=O)ccc1Oc1nc2c(c(=O)n(C)c(=O)n2C)n1C` (configuration not stated) were, in that order, 35.6%, 30.6%, 63.7%, 18.1 mg/L (≈ 35 µM) and more than 200 mg/L.
For `COc1ccc(C2=NN(C(C)=O)C(c3ccc(Oc4nc5c(c(=O)n(C)c(=O)n5C)n4C)c(OC)c3)C2)cc1` (configuration not stated), the inhibition of growth at 20 µg/mL worked out at 11.6% with Plasmodium falciparum [1], 0% with Trypanosoma cruzi and 76.2% in the data set with Leishmania panamensis [2]. For the same molecule, in the data set on Leishmania panamensis [4], the EC50 is 14.6 mg/L (≈ 27.4 µM). Besides, in data set [3], the CC50 at 72 h was more than 200 mg/L.
The like results for `COc1cc(C2CC(c3cc(OC)c(OC)c(OC)c3)=NN2C(C)=O)ccc1Oc1nc2c(c(=O)n(C)c(=O)n2C)n1C` (configuration not stated) were, in that order, 46.3%, 15.8%, 87.6%, 12.6 mg/L (≈ 21.3 µM) and more than 200 mg/L.
Turning to `COc1cc(C2CC(c3ccccc3)=NN2C=O)ccc1Oc1nc2c(c(=O)n(C)c(=O)n2C)n1C` (configuration not stated), the inhibition of growth at 20 µg/mL was determined as 30.8% in the data set on Plasmodium falciparum [1], 0% in the data set with Trypanosoma cruzi and 53.1% in the data set with Leishmania panamensis [2]. In data set [3], the CC50 at 72 h is more than 200 mg/L.
The like results for `COc1cc(C2CC(c3ccc(Cl)cc3)=NN2C=O)ccc1Oc1nc2c(c(=O)n(C)c(=O)n2C)n1C` (configuration not stated) were, in that order, 23.9%, 21.1%, 0% and more than 200 mg/L.
Regarding `COc1cc(C2CC(c3ccc(Br)cc3)=NN2C=O)ccc1Oc1nc2c(c(=O)n(C)c(=O)n2C)n1C` (configuration not stated), the values for the inhibition of growth at 20 µg/mL in the data set with Plasmodium falciparum [1], with Trypanosoma cruzi and in the data set with Leishmania panamensis [2] were 46.9%, 36.9% and 70.4%, respectively. The EC50 with Leishmania panamensis [4] was found to be 16.1 mg/L (≈ 28.4 µM). Further, the CC50 at 72 h in data set [3] was more than 200 mg/L.
Regarding `COc1cc(C2CC(c3ccc(C)cc3)=NN2C=O)ccc1Oc1nc2c(c(=O)n(C)c(=O)n2C)n1C` (configuration not stated), the results for the inhibition of growth at 20 µg/mL with Plasmodium falciparum [1], with Trypanosoma cruzi and with Leishmania panamensis [2] were 37.1%, 0% and 0%, respectively. Besides, in data set [3], the CC50 at 72 h was more than 200 mg/L.
Take `COc1ccc(C2=NN(C=O)C(c3ccc(Oc4nc5c(c(=O)n(C)c(=O)n5C)n4C)c(OC)c3)C2)cc1` (configuration not stated): the figures for the inhibition of growth at 20 µg/mL in the data set on Plasmodium falciparum [1], with Trypanosoma cruzi and in the data set with Leishmania panamensis [2] were 41.7%, 27% and 48.1%, respectively. The CC50 at 72 h in data set [3] came to 38.7 mg/L (≈ 74.6 µM).
With `COc1cc(C2CC(c3cc(OC)c(OC)c(OC)c3)=NN2C=O)ccc1Oc1nc2c(c(=O)n(C)c(=O)n2C)n1C` (configuration not stated), the results for the inhibition of growth at 20 µg/mL with Plasmodium falciparum [1], in the data set with Trypanosoma cruzi and in the data set on Leishmania panamensis [2] were 29.5%, 9.9% and 30.1%, respectively. Also, the CC50 at 72 h in data set [3] was more than 200 mg/L.
As to `COc1cc(C2CC(c3ccccc3)=Nc3c(C)nn(-c4ccccc4)c3N2)ccc1Oc1nc2c(c(=O)n(C)c(=O)n2C)n1C` (configuration not stated), the inhibition of growth at 20 µg/mL in the data set with Plasmodium falciparum [1] worked out at 85.9%; with Trypanosoma cruzi, 15.7%; in the data set with Leishmania panamensis [2], 0%. Besides, in data set [5], the HC50 at 48 h is more than 200 µg/mL. The IC50 with Plasmodium falciparum [6] is 13.3 mg/L (≈ 21.6 µM). Further, in data set [3], the CC50 at 72 h was more than 200 mg/L.
Turning to `COc1cc(C2CC(c3ccc(Cl)cc3)=Nc3c(C)nn(-c4ccccc4)c3N2)ccc1Oc1nc2c(c(=O)n(C)c(=O)n2C)n1C` (configuration not stated), the inhibition of growth at 20 µg/mL in the data set on Plasmodium falciparum [1] was 80.3%; in the data set on Trypanosoma cruzi, 0%; in the data set on Leishmania panamensis [2], 0%. Besides, the HC50 at 48 h in data set [5] was more than 200 µg/mL. For the same molecule, in the data set with Plasmodium falciparum [6], the IC50 was 14.1 mg/L (≈ 21.7 µM). Further, in data set [3], the CC50 at 72 h was more than 200 mg/L.
Take `COc1cc(C2CC(c3ccc(F)cc3)=Nc3c(C)nn(-c4ccccc4)c3N2)ccc1Oc1nc2c(c(=O)n(C)c(=O)n2C)n1C` (configuration not stated): the values for the inhibition of growth at 20 µg/mL in the data set on Plasmodium falciparum [1], in the data set on Trypanosoma cruzi and with Leishmania panamensis [2] were 91.7%, 23.5% and 0%, respectively. Moreover, in data set [5], the HC50 at 48 h was more than 200 µg/mL. The IC50 in the data set on Plasmodium falciparum [6] was determined as 12.5 mg/L (≈ 19.7 µM). In addition, the CC50 at 72 h in data set [3] is more than 200 mg/L.
Take `C[C@@H]1[C@H](O)[C@@H](C)/C=C/C=C/C=C/C=C/C=C/C=C/C=C/[C@H](O[C@@H]2O[C@H](C)[C@@H](O)[C@H](N)[C@@H]2O)C[C@@H]2O[C@](O)(C[C@@H](O)C[C@@H](O)[C@H](O)CC[C@@H](O)C[C@@H](O)CC(=O)O[C@H]1C)C[C@H](O)[C@H]2C(=O)O` [AMPHOTERICIN B]: the EC50 in the data set on Leishmania panamensis [4] was 0.05 mg/L (≈ 0.0541 µM). In addition, the inhibition of growth at 20 µg/mL with Leishmania panamensis [2] was found to be 100%. Further, the CC50 at 72 h in data set [3] worked out at 36 mg/L (≈ 39 µM).
`CCN(CC)CCCC(C)Nc1ccnc2cc(Cl)ccc12` (configuration not stated) [CHLOROQUINE]: in the data set on Plasmodium falciparum [1], the inhibition of growth at 20 µg/mL is 58.2%.

(Values after ChEMBL document CHEMBL3407332, “An efficient synthesis of new caffeine-based chalcones, pyrazolines and pyrazolo[3,4-b][1,4]diazepines as potential antimalarial, antitrypanosomal and antileishmanial agents” (Eur J Med Chem, 2015).)
